US9321762B2, “Quinazoline compounds, method for preparing the same and use thereof” (DEVELOPMENT CENTER FOR BIOTECHNOLOGY, priority 2013, dated 2016)
Read-outs that look alike come from different tables or passages of the source.

Experiments:
B-Raf kinase = molecular target: T1, B-Raf kinase (Homo sapiens, UniProt P15056); experiment: B-Raf kinase assay ([33P] incorporation into MEK1(K97R)); format: biochemical; details: class symbols; 8 μM ATP; read-out: IC50 against B-Raf kinase
T1 construct: purchased Upstate Biotechnology
Method in brief: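 Recombinant B-Raf (5 ng) phosphorylating 500 ng MEK1(K97R) with 8 μM ATP plus [33P]ATP, pH 7.5 Tris buffer, 30 min at 30 °C. Radiolabel incorporation counted by filter-binding scintillation; IC50 from 3-fold serial dilutions run in duplicate.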

B-Raf(V600E) kinase = molecular target: T2, B-Raf(V600E) kinase (Homo sapiens, UniProt P15056, V600E); experiment: B-Raf(V600E) kinase assay ([33P] incorporation into MEK1(K97R)); format: biochemical; details: class symbols; 8 μM ATP; read-out: IC50 against B-Raf(V600E) kinase
T2 construct: purchased Upstate Biotechnology
Description: (§1) Inhibition of kinase activity by a test compound disclosed herein was estimated by quantifying the amount of [^33P] incorporation of a substrate in the presence of the test compound. Standard assay conditions were 5 ng of recombinant B-Raf(V600E) kinase (Upstate Biotechnology) with 500 ng MEK1 (K97R) in assay buffer (8 μM ATP, 0.5 μCi [^33P] ATP (specific activity 3000 Ci/mmol, PerkinElmer), 50 mM Tris/HCl (pH7.5), and 1 mM EGTA, 1 mM Na3VO4, 1% 2-mercaptoethanol, 0.1% Brij 35, and 0.2 mg/ml BSA), and the test compound (diluted with 4% DMSO) or DMSO alone (as a control) in a final volume of 25 μL. Reactions were incubated at 30° C. for 30 min and stopped by adding 3% phosphoric acid, harvested onto a 96-well GF/B UniFilter (PerkinElmer) using a unifilter harvester (PerkinElmer), and counted with a TopCount microplate scintillation counter (PerkinElmer). The IC50 values of inhibitors were determined after carrying out assays at 3-fold serially diluted concentrations of each compound in duplication. The results were analyzed using linear regression software (GraphPad Prism 4; GraphPad Software Inc.).

C-Raf kinase = molecular target: T3, C-Raf kinase (Homo sapiens, UniProt P04049); experiment: C-Raf kinase assay ([33P] incorporation into MEK1(K97R)); format: biochemical; details: class symbols; 8 μM ATP; read-out: IC50 against C-Raf kinase
T3 construct: purchased Upstate Biotechnology
Description: as §1, with “were 2” for “were 5”, “recombinant C-Raf” for “recombinant B-Raf(V600E)”

VEGFR2 kinase = molecular target: T4, VEGFR2 kinase (Homo sapiens, UniProt P35968); experiment: VEGFR2 radiometric kinase assay; format: biochemical; details: given as bound; 100 μM ATP; read-out: Inhibition activity, IC50 VEGFR2
T4 construct: VEGFR2 kinase domain alone, Millipore; purchased Millipore
Description: (§2) The inhibitory activity against VEGFR2 or EGFR was determined by radiometric kinase assay. The experimental condition for VEGFR2 kinase assay was 6.25 ng of recombinant VEGFR2 kinase (VEGFR2 kinase domain alone, Millipore), 5 μg of substrate Poly(Glu-Tyr) (4:1, Sigma), kinase reaction buffer (20 mM MOPS pH 7.0, 1 mM EDTA, 5% glycerol, 0.01% Brij-35, 0.1% β-mercaptoethanol, 1 mg/mL BSA, 100 μM ATP, and 0.1 μCi per well [^33P] ATP (specific activity 3000 Ci/mmol, PerkinElmer)), and the test compound (diluted with 4% DMSO) or DMSO alone (as a control) in a final volume of 25 μL. Reactions were incubated at 30° C. for 30 min and stopped by adding 3% phosphoric acid, harvested onto a 96-well GF/B UniFilter (PerkinElmer) using a unifilter harvester (PerkinElmer), and counted with a TopCount microplate scintillation counter (PerkinElmer).
(§3) Results of inhibition activity against VEGFR2 and EGFR kinases by the selected compounds, which have IC50 values on B-Raf kinase <300 nM, are summarized in Table 6.

EGFR kinase = molecular target: T5, EGFR kinase (Homo sapiens, UniProt P00533); experiment: EGFR radiometric kinase assay; format: biochemical; details: 100 μM ATP, read-out: Inhibition activity, IC50 EGFR
T5 construct: EGFR kinase domain alone, Millipore; purchased Millipore
Description: as §2
The experimental condition for EGFR kinase assay was 25 ng of EGFR kinase (EGFR kinase domain alone, Millipore), 3 μg of the substrate poly(Glu-Tyr), (Sigma), kinase reaction buffer (10 mM MOPS pH 7.0, 0.3 mM EDTA, 0.5% glycerol, 0.001% Brij-35, 10 mM MnCl2, 0.1 mg/ml BSA, 100 μM ATP, and 0.1 μCi per well [^33P]ATP (specific activity 3000 Ci/mmol, PerkinElmer)), and the test compound (diluted with 4% DMSO) or DMSO (as a control) in a final volume of 25 μL. Reactions were incubated at 30° C. for 30 min and stopped by adding 3% phosphoric acid, harvested onto a 96-well GF/B UniFilter (PerkinElmer) using a unifilter harvester (PerkinElmer), and counted with a TopCount microplate scintillation counter (PerkinElmer).
as §3

[1] = system: A375 melanoma cells and COLO205 colon cancer cells; experiment: Cell proliferation assay (CellTiter-96); format: cell-based; details: Homo sapiens; A375 or COLO205, 72 hours treatment; read-out: Cytotoxicity IC50 for A375 or COLO205
Description: The anti-proliferative activities of compounds of formula (I) against B-Raf(V600E) mutant human cancer cell lines, A375 melanoma cells and COLO205 colon cancer cells, were measured using the CellTiter™-96 assay kit (Promega) following the manufacturer's instructions. In brief, the cells were maintained in DMEM containing 10% FCS and incubated at 37° C. in 5% CO2 atmosphere. Cells were plated at a density of 2,000 cells/well on a 96-well plate and incubated for 24 h. Then, these cells were treated with different concentrations of the test compounds and incubated for another 72 hours. At the end of the incubation, CellTiter™-96 Aqueous One Solution Reagent (Promega) was added and incubated for another 4.0 hours. Cell viability was determined by measuring absorbance at 490 nm using EMax® microplate reader (Molecular Devices). Data were processed and analyzed using GraphPad Prism.

T5 sequence (P00533 712-979 limits assumed): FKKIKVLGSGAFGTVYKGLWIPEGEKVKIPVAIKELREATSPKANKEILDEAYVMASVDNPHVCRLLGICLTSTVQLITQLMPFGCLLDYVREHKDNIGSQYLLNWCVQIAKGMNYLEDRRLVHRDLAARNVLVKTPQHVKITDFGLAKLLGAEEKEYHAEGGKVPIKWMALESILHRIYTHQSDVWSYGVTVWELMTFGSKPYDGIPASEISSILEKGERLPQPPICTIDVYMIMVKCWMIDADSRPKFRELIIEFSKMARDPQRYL
T2 sequence (P15056 whole entry V600E): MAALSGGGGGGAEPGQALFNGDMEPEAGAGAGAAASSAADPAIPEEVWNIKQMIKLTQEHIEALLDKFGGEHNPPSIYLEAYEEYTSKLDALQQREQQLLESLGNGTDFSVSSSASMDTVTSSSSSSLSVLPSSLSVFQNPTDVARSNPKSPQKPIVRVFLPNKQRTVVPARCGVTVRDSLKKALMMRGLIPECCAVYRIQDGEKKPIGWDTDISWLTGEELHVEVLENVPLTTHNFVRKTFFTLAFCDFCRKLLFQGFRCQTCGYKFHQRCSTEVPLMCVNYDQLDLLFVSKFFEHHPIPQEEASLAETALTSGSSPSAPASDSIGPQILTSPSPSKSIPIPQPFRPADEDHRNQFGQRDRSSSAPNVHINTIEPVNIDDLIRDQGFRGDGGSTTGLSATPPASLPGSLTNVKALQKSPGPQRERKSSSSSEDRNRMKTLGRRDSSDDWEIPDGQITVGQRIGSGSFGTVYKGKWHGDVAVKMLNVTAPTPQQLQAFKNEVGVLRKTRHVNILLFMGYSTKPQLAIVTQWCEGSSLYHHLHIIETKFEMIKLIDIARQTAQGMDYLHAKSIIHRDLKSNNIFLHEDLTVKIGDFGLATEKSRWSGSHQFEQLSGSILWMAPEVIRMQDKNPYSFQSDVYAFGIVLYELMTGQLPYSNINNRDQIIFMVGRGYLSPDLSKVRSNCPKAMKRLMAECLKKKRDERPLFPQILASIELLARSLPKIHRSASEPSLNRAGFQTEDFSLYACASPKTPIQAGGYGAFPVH
T4 sequence (P35968 834-1162 limits assumed): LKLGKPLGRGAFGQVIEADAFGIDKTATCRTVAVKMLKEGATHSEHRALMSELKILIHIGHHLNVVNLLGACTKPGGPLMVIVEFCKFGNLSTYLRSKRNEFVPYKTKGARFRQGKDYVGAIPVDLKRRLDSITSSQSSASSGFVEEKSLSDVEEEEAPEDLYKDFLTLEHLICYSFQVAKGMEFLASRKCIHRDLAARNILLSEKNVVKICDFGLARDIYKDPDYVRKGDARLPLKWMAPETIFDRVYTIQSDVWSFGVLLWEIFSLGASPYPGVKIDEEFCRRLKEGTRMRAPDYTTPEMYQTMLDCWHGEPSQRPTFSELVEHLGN
T3 sequence (P04049 whole entry): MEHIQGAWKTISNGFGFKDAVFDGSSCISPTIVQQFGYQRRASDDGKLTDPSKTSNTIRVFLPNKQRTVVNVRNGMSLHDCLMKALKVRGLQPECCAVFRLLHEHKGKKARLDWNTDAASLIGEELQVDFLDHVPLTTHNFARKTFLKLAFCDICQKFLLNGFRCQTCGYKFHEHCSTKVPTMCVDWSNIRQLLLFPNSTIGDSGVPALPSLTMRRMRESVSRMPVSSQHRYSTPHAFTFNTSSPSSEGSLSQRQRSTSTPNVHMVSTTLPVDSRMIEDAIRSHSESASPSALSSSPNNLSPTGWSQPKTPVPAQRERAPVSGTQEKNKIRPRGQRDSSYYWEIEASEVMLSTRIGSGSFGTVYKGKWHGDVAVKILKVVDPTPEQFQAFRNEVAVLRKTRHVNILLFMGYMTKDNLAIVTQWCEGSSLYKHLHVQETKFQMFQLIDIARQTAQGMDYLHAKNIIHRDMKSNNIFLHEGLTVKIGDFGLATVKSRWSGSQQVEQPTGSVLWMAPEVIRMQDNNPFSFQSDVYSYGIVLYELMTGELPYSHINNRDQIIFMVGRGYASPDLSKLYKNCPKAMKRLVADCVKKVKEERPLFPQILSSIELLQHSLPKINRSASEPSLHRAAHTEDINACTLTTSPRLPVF
T1 sequence (P15056 whole entry): as the sequence (P15056 whole entry V600E) above, with E600V counted along it

CCCS(=O)(=O)Nc1ccc(F)c(Nc2ncnc3ccc(-c4cccnc4F)cc23)c1F [compound 1, N-(2,4-difluoro-3-(6-(2-fluoropyridin-3-yl)quinazolin-4-ylamino)phenyl)propane-1-sulfonamide] was tested, and the IC50 (B-Raf kinase) was < 300 nM, the IC50 (B-Raf(V600E) kinase) was < 300 nM and the IC50 (C-Raf kinase) was < 300 nM. The IC50 (VEGFR2 kinase) was > 3 µM, the IC50 (EGFR kinase; given as bound) was > 3000 nM and the IC50 [1] was < 2000 nM.
With CCCS(=O)(=O)Nc1ccc(F)c(Nc2ncnc3ccc(-c4cnc(N)nc4)cc23)c1F [compound 50, N-(3-(6-(2-aminopyrimidin-5-yl)quinazolin-4-ylamino)-2,4-difluorophenyl)propane-1-sulfonamide] the IC50 (B-Raf kinase) was < 300 nM, the IC50 (B-Raf(V600E) kinase) was 300 to 1000 nM and the IC50 (C-Raf kinase) was 300 to 1000 nM. For the same compound, the IC50 (VEGFR2 kinase) was > 3 µM, the IC50 (EGFR kinase; given as bound) was > 3000 nM and the IC50 [1] was < 2000 nM.
With CCCS(=O)(=O)Nc1ccc(F)c(Nc2ncnc3ccc(-c4ccnc(F)c4)cc23)c1F [compound 24, N-(2,4-difluoro-3-(6-(2-fluoropyridin-4-yl)quinazolin-4-ylamino)phenyl)propane-1-sulfonamide] the IC50 (B-Raf kinase) was < 300 nM, the IC50 (B-Raf(V600E) kinase) was < 300 nM and the IC50 (C-Raf kinase) was 300 to 1000 nM. The IC50 (VEGFR2 kinase) was > 3 µM, the IC50 (EGFR kinase; class symbols) was 1000 to 3000 nM and the IC50 [1] was < 2000 nM.
For CCCS(=O)(=O)Nc1ccc(F)c(Nc2ncnc3ccc(-c4cccc(C#N)n4)cc23)c1F [compound 63, N-(3-(6-(6-cyanopyridin-2-yl)quinazolin-4-ylamino)-2,4-difluorophenyl)propane-1-sulfonamide], the IC50 (B-Raf kinase) was < 300 nM, the IC50 (B-Raf(V600E) kinase) was < 300 nM and the IC50 (C-Raf kinase) was < 300 nM. The IC50 (VEGFR2 kinase) was > 3 µM, the IC50 (EGFR kinase; class symbols) was 300 to 1000 nM and the IC50 [1] was < 2000 nM.
In the case of CCCS(=O)(=O)Nc1ccc(F)c(Nc2ncnc3ccc(-c4ccnc(OCCN(C)C)c4)cc23)c1F [compound 45, N-(3-(6-(2-(2-(dimethylamino)ethoxy)-pyridin-4-yl)quinazolin-4-ylamino)-2,4-difluorophenyl)propane-1-sulfonamide], the IC50 (B-Raf kinase) is reported as < 300 nM, the IC50 (B-Raf(V600E) kinase) is reported as < 300 nM and the IC50 (C-Raf kinase) is reported as 1000 to 10000 nM. The IC50 (VEGFR2 kinase) was > 3 µM, the IC50 (EGFR kinase; given as bound) was > 3000 nM and the IC50 [1] was < 2000 nM.
In the case of CCCS(=O)(=O)Nc1ccc(F)c(Nc2ncnc3ccc(-c4ccc(N5CCOCC5)nc4)cc23)c1F [compound 2, N-(2,4-difluoro-3-(6-(6-morpholinopyridin-3-yl)quinazolin-4-ylamino)phenyl)propane-1-sulfonamide], the IC50 (B-Raf kinase) is reported as < 300 nM, the IC50 (B-Raf(V600E) kinase) is reported as < 300 nM and the IC50 (C-Raf kinase) is reported as < 300 nM. For the same compound, the IC50 (VEGFR2 kinase) was > 3 µM, the IC50 (EGFR kinase; class symbols) was 1000 to 3000 nM and the IC50 [1] was < 2000 nM.
CCCS(=O)(=O)Nc1ccc(F)c(Nc2ncnc3ccc(-c4cccc(F)n4)cc23)c1F [compound 36, N-(2,4-difluoro-3-(6-(6-fluoropyridin-2-yl)-quinazolin-4-ylamino)phenyl)propane-1-sulfonamide] was tested, and the IC50 (B-Raf kinase) was < 300 nM, the IC50 (B-Raf(V600E) kinase) was < 300 nM and the IC50 (C-Raf kinase) was 300 to 1000 nM. For the same compound, the IC50 (VEGFR2 kinase) was > 3 µM, the IC50 (EGFR kinase; class symbols) was 1000 to 3000 nM and the IC50 [1] was < 2000 nM.
With CCCS(=O)(=O)Nc1ccc(F)c(Nc2ncnc3ccc(-c4cccc(OCCN(C)C)n4)cc23)c1F [compound 39, N-(3-(6-(6-(2-(dimethylamino)ethoxy)-pyridin-2-yl)quinazolin-4-ylamino)-2,4-difluorophenyl)propane-1-sulfonamide] the IC50 (B-Raf kinase) was < 300 nM, the IC50 (B-Raf(V600E) kinase) was < 300 nM and the IC50 (C-Raf kinase) was 1000 to 10000 nM. The IC50 (VEGFR2 kinase) was > 3 µM, the IC50 (EGFR kinase; given as bound) was > 3000 nM and the IC50 [1] was < 2000 nM.
In the case of CCCS(=O)(=O)Nc1ccc(F)c(Nc2ncnc3cc(F)c(-c4ccncc4)cc23)c1F [compound 15, N-(2,4-difluoro-3-(7-fluoro-6-(pyridin-4-yl)quinazolin-4-ylamino)phenyl)propane-1-sulfonamide], the IC50 (B-Raf kinase) is reported as < 300 nM, the IC50 (B-Raf(V600E) kinase) is reported as < 300 nM and the IC50 (C-Raf kinase) is reported as < 300 nM. The IC50 (VEGFR2 kinase) was > 3 µM, the IC50 (EGFR kinase; class symbols) was 1000 to 3000 nM and the IC50 [1] was < 2000 nM.
In the case of CCCS(=O)(=O)Nc1ccc(F)c(Nc2ncnc3ccc(-c4ccnc(OC)c4)cc23)c1F [compound 31, N-(2,4-difluoro-3-(6-(2-methoxypyridin-4-yl)quinazolin-4-ylamino)phenyl)propane-1-sulfonamide], the IC50 (B-Raf kinase) is reported as < 300 nM, the IC50 (B-Raf(V600E) kinase) is reported as < 300 nM and the IC50 (C-Raf kinase) is reported as < 300 nM. The IC50 (VEGFR2 kinase) was > 3 µM, the IC50 (EGFR kinase; class symbols) was 300 to 1000 nM and the IC50 [1] was < 2000 nM.
With CCCS(=O)(=O)Nc1ccc(F)c(Nc2ccnc3ccc(-c4ccnc(F)c4)cc23)c1F [compound 25, N-(2,4-difluoro-3-(6-(2-fluoropyridin-4-yl)quinolin-4-ylamino)phenyl)propane-1-sulfonamide] the IC50 (B-Raf kinase) was < 300 nM, the IC50 (B-Raf(V600E) kinase) was < 300 nM and the IC50 (C-Raf kinase) was < 300 nM. The IC50 (VEGFR2 kinase) was > 3 µM, the IC50 (EGFR kinase; given as bound) was > 3000 nM and the IC50 [1] was < 2000 nM.
In the case of CCCS(=O)(=O)Nc1ccc(F)c(Nc2ncnc3cc(OCCN4CCOCC4)c(-c4cccnc4F)cc23)c1F [compound 8, N-(2,4-difluoro-3-(6-(2-fluoropyridin-3-yl)-7-(2-morpholinoethoxy)quinazolin-4-ylamino)phenyl)propane-1-sulfonamide], the IC50 (B-Raf kinase) is reported as < 300 nM, the IC50 (B-Raf(V600E) kinase) is reported as < 300 nM and the IC50 (C-Raf kinase) is reported as 300 to 1000 nM. For the same compound, the IC50 (VEGFR2 kinase) was > 3 µM, the IC50 (EGFR kinase; given as bound) was > 3000 nM and the IC50 [1] was < 2000 nM.
In the case of CCCS(=O)(=O)Nc1ccc(F)c(Nc2ncnc3ccc(-c4cccc(C(F)(F)F)n4)cc23)c1F [compound 62, N-(2,4-difluoro-3-(6-(6-(trifluoromethyl)pyridin-2-yl)quinazolin-4-ylamino)phenyl)propane-1-sulfonamide], the IC50 (B-Raf kinase) is reported as < 300 nM, the IC50 (B-Raf(V600E) kinase) is reported as < 300 nM and the IC50 (C-Raf kinase) is reported as < 300 nM. For the same compound, the IC50 (VEGFR2 kinase) was > 3 µM, the IC50 (EGFR kinase; class symbols) was 300 to 1000 nM and the IC50 [1] was < 2000 nM.
